Series [1] has as its system P. falciparum D10 (CQ-sensitive) strain. Kind of series: P. falciparum drug susceptibility assay (pLDH), D10 strain. The following applies: Plasmodium falciparum, D10, 72 h, read-out: P. falciparum IC50 D10. It is filed as cell-based. As to the method:
Plasmodium falciparum cultures were established according to the method of Trager and Jensen, with slight modifications. […] Drugs were introduced into 96-well flat-bottomed microplates and serial dilutions made. […] Parasite growth was determined spectrophotometrically (OD650) by measuring the activity of parasite lactate dehydrogenase (pLDH), according to a modified version of the method of Makler, in both control and drug-treated cultures.

For series [2], the system named is P. falciparum W2 (CQ-resistant) strain. The series can be described thus: P. falciparum drug susceptibility assay (pLDH), W2 strain. The settings on record: Plasmodium falciparum, W2, 72 h, read-out: P. falciparum IC50 W2. It is filed as cell-based, Plasmodium falciparum. As to the method: Plasmodium falciparum cultures were established according to the method of Trager and Jensen, with slight modifications. The CQ-susceptible strain, D10, and the CQ-resistant strain, W2, were maintained in human type A-positive red blood cells at 5% hematocrit in RPMI 1640 medium with the addition of 1% AlbuMax, 0.01% hypoxanthine, 20 mM Hepes, and 2 mM glutamine. Cultures were maintained at 37 °C in a gas mixture consisting of 1% O2, 5% CO2, and 94% N2. Compounds were dissolved in DMSO and diluted with medium to achieve the required concentrations (final DMSO concentration <1%, which is non-toxic to the parasite). Drugs were introduced into 96-well flat-bottomed microplates and serial dilutions made. Asynchronous cultures with parasitaemia of 1–1.5% and 1% final hematocrit were aliquoted into the plates and incubated for 72 h at 37 °C. Parasite growth was determined spectrophotometrically (OD650) by measuring the activity of parasite lactate dehydrogenase (pLDH), according to a modified version of the method of Makler, in both control and drug-treated cultures.

In series [3] the test system is human microvascular endothelial (HMEC-1) cell line. The following applies: read-out: IC50 on HMEC-1 cell line, ref [21]; cited from earlier work.
The subject of series [4] is P. falciparum 3D7 strain. Details: method as in PMID 30411030. The settings on record: ref [11], cited from earlier work.
Series [5] has as its system P. falciparum RKL-9 strain. Also on record: method as in PMID 30411030. The settings on record: ref [11], cited from earlier work.
The subject of series [6] is normal dermal fibroblasts. Also on record: method as in PMID 30411030. The following applies: ref [11]; cited from earlier work.

For the compound `CCN(CC)CCCC(C)Nc1ccnc2cc(Cl)ccc12` (centres unmarked) [CQ, chloroquine, reference compound], the IC50 was 17 ± 6 nM in series [1], 270 ± 70 nM in series [2] and greater than 38 µM in series [3].
`COC(=O)[C@@H]1Cc2c([nH]c3ccccc23)[C@@H](c2ccc3c(c2)OCO3)N1` [Compound 9a]: the IC50 in series [4] (3D7 strain) and in series [5] (RKL-9 strain) was less than 2860 nM each time. In series [4] (against 3D7 strain), the “selectivity index 3D7” value is greater than 10. The “selectivity index RKL-9” value in series [5] (against RKL-9 strain) is reported as greater than 10. The “toxicity to normal dermal fibroblasts” value in series [6] is reported as “nontoxic”.
